Assay results taken from patent US20040102622A1, “Modulation of hepatocyte growth factor receptor expression” (Isis Pharmaceuticals Inc., priority 2002, published 2004).
Strand notation (5' to 3'): a small letter for the sugar, then the base; units joined by * are phosphorothioate-linked, units joined directly phosphodiester-linked; [ ] holds rarer units or linkages, { } end groups; capitals alone tell only the bases. e = 2'-O-(2-methoxyethyl) (MOE); [5mC] = 5-methylcytosine; d = 2'-deoxy (DNA)

Each substance was assayed on human hepatocyte growth factor receptor mRNA (assay: Inhibition of human hepatocyte growth factor receptor mRNA levels in T-24 cells, quantitative real-time PCR). Conditions: averages from three experiments.
Note: test concentration or dose not given here.

Row | Substance | % INHIB (inhibition of human hepatocyte growth factor receptor mRNA levels) [%]
1 | 155097 (antisense e[5mC]*e[5mC]*eT*e[5mC]*eG*dG*dT*d[5mC]*dA*dG*dA*dA*dA*dT*dT*eG*eG*eG*eA*eA) [compound 155097] | 53
2 | 155098 (antisense eT*e[5mC]*eA*eG*eA*dA*dG*dT*dG*dT*d[5mC]*d[5mC]*dT*dA*dT*eT*eA*eA*eA*eG) [compound 155098] | 48
3 | 155099 (antisense e[5mC]*eA*eG*eG*eT*dT*dT*dT*dT*d[5mC]*d[5mC]*d[5mC]*dA*dA*d[5mC]*eA*e[5mC]*e[5mC]*eT*eG) [compound 155099] | 77
4 | 155100 (antisense eA*eG*e[5mC]*eT*eG*dA*dT*dA*d[5mC]*dT*dT*d[5mC]*dA*dT*dA*eT*eT*e[5mC]*eA*e[5mC]) [compound 155100] | 0
5 | 155101 (antisense eT*eT*e[5mC]*eA*eG*d[5mC]*d[5mC]*dA*d[5mC]*dA*dG*dG*dA*dA*dA*eA*eA*e[5mC]*e[5mC]*e[5mC]) [compound 155101] | 40
6 | 155102 (antisense eG*eA*eG*eA*eG*dG*d[5mC]*dA*dT*dT*dG*dA*d[5mC]*dT*dG*e[5mC]*eA*eG*eG*eA) [compound 155102] | 35
7 | 155103 (antisense eT*eG*eG*eG*eA*dA*dG*d[5mC]*dT*dG*dA*dT*dA*d[5mC]*dT*eT*e[5mC]*eA*eT*eA) [compound 155103] | 86
8 | 155104 (antisense eA*eT*eG*e[5mC]*eA*dA*dT*dG*dG*dA*dT*dG*dA*dT*d[5mC]*eT*eG*eG*eG*eA) [compound 155104] | 84
9 | 155105 (antisense eA*eT*e[5mC]*eA*eA*dA*dG*dT*dA*dT*dT*dT*dG*dG*dA*eA*eA*eG*eG*eA) [compound 155105] | 64
10 | 155106 (antisense e[5mC]*eA*e[5mC]*eA*eA*d[5mC]*d[5mC]*dT*dG*d[5mC]*dA*dT*dG*dA*dA*eG*e[5mC]*eG*eA*e[5mC]) [compound 155106] | 66
11 | 155107 (antisense eT*e[5mC]*e[5mC]*eG*e[5mC]*dG*dG*dT*dG*dA*dA*dG*dT*dT*dG*eG*eG*eA*eA*eG) [compound 155107] | 42
12 | 155108 (antisense eA*eT*eT*e[5mC]*eT*d[5mC]*dG*dG*dG*dA*d[5mC]*dA*d[5mC]*dT*dA*eA*e[5mC]*eT*eG*eA) [compound 155108] | 79
13 | 155109 (antisense eA*eG*e[5mC]*eT*e[5mC]*dG*d[5mC]*dT*dG*dT*dT*d[5mC]*dA*dA*dT*eT*eT*e[5mC]*eA*eG) [compound 155109] | 80
14 | 155110 (antisense eT*e[5mC]*eG*eG*eG*dA*d[5mC]*dA*d[5mC]*dT*dA*dA*d[5mC]*dT*dG*eA*eA*eT*eT*e[5mC]) [compound 155110] | 79
15 | 155111 (antisense eG*eT*eT*e[5mC]*eG*dG*d[5mC]*dA*dG*dA*dA*dT*d[5mC]*dT*dG*eG*e[5mC]*eT*eT*eG) [compound 155111] | 86
16 | 155112 (antisense eT*eA*eG*eG*eA*dG*dT*d[5mC]*dT*dT*d[5mC]*dT*d[5mC]*d[5mC]*d[5mC]*eT*eT*eG*e[5mC]*eA) [compound 155112] | 81
17 | 155113 (antisense e[5mC]*eT*eA*eA*eT*dG*dA*dG*dT*dT*dG*dA*dT*d[5mC]*dA*eT*e[5mC]*eA*eT*eA) [compound 155113] | 83
